Measured values from patent publication US20240269139A1, “COMPOUNDS FOR TARGETED PROTEIN DEGRADATION OF KINASES” (DANA-FARBER CANCER INSTITUTE, INC., priority 2020, published 2024).
Where two headings read alike, the source gives them in different places.

Legend:
Format in all cases: cell-based
[1] = biological target: protein kinases (human kinome) (Homo sapiens, UniProt O43353); details: for logFC: RIPK2 (O43353-1)
[2] = biological target: T1, protein kinases (human kinome) (Homo sapiens, UniProt O14757); details: for logFC: CHEK1 (O14757)
T1 sequence (O14757 1-476): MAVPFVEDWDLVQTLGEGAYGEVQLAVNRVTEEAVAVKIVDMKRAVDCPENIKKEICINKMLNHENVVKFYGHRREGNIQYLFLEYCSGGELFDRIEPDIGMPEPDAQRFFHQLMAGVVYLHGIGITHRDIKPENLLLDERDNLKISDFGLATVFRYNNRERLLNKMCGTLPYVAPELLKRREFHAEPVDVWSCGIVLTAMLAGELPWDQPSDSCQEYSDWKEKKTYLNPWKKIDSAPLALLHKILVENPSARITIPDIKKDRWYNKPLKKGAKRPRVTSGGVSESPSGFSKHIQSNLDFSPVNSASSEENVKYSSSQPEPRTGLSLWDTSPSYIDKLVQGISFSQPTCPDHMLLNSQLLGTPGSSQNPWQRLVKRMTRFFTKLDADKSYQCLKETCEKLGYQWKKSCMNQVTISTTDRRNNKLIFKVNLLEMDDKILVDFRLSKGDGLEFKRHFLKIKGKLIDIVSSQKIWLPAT

[3] = biological target: protein kinases (human kinome) (Homo sapiens, UniProt P31751); details: AKT2 (P31751)
[4] = biological target: protein kinases (human kinome) (Homo sapiens, UniProt Q9P1W9); details: experiment wp076; for logFC: PIM2 (Q9P1W9)
[5] = biological target: protein kinases (human kinome) (Homo sapiens, UniProt Q5TCX8); details: for logFC: MAP3K21 (Q5TCX8); for logFC MAP3K21 (Q5TCX8): direction of change down
[6] = biological target: T2, protein kinases (human kinome) (Homo sapiens, UniProt Q86YV5); details: PRAG1 Q86YV5
T2 sequence (Q86YV5 1-1406): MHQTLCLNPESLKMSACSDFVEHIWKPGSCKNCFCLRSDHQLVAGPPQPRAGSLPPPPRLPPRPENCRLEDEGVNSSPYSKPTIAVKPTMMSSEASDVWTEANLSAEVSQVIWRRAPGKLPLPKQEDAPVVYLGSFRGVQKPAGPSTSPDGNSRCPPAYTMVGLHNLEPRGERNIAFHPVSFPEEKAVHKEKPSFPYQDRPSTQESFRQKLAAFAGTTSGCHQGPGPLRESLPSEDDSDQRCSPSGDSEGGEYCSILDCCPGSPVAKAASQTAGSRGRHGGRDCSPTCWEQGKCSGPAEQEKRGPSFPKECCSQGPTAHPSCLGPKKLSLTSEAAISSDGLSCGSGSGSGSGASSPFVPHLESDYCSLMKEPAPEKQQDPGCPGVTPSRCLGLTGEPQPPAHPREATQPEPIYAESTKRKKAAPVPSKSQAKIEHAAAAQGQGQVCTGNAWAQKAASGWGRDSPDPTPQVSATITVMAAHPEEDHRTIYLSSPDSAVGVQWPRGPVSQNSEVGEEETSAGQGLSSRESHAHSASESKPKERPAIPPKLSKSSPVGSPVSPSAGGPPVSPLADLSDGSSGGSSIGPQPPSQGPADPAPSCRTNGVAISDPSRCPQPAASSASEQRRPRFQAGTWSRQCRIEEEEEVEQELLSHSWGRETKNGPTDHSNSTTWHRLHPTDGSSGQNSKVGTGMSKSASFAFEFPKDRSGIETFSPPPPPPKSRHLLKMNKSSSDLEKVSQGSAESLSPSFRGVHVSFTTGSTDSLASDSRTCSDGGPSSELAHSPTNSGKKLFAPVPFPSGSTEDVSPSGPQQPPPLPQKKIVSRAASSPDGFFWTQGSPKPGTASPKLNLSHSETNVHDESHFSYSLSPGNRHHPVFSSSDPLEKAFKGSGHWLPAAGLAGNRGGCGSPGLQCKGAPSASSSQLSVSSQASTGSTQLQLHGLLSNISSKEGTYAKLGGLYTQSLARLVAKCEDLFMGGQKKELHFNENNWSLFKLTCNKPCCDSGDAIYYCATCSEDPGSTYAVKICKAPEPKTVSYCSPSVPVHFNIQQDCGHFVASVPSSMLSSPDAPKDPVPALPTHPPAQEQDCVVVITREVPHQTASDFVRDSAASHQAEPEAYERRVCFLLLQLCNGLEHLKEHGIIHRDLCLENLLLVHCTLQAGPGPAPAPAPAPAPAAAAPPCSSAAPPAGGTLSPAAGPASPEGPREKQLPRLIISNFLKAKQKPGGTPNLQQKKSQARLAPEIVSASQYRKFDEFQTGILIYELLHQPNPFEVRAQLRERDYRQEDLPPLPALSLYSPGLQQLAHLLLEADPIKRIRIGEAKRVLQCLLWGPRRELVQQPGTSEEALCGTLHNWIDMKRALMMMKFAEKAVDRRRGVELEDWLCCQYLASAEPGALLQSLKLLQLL

Chain of protein kinases (human kinome) (Homo sapiens, UniProt O43353) (O43353 whole entry): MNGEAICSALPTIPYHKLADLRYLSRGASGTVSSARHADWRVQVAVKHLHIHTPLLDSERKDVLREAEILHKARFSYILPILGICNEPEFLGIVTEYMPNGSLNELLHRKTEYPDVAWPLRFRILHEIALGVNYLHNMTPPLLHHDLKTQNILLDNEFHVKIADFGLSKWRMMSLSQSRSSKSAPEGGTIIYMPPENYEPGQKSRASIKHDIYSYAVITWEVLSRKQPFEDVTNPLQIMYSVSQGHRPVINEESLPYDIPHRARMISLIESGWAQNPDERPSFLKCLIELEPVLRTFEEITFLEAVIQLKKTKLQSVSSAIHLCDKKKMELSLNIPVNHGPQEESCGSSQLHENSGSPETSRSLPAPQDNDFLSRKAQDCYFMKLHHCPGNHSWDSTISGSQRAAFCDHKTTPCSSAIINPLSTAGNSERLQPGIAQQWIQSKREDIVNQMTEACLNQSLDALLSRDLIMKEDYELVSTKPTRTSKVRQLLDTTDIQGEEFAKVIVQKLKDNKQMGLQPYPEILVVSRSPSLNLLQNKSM
Chain of protein kinases (human kinome) (Homo sapiens, UniProt Q9P1W9) (Q9P1W9 whole entry): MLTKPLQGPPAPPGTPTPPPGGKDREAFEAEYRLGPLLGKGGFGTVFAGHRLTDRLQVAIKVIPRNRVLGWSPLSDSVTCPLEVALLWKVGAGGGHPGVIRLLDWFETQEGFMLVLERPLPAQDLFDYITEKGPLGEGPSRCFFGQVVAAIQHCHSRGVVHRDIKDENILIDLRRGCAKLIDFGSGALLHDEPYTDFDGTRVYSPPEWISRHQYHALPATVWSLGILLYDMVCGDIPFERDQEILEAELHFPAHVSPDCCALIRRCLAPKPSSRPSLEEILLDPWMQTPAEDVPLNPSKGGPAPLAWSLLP
Chain of protein kinases (human kinome) (Homo sapiens, UniProt Q5TCX8) (Q5TCX8 whole entry): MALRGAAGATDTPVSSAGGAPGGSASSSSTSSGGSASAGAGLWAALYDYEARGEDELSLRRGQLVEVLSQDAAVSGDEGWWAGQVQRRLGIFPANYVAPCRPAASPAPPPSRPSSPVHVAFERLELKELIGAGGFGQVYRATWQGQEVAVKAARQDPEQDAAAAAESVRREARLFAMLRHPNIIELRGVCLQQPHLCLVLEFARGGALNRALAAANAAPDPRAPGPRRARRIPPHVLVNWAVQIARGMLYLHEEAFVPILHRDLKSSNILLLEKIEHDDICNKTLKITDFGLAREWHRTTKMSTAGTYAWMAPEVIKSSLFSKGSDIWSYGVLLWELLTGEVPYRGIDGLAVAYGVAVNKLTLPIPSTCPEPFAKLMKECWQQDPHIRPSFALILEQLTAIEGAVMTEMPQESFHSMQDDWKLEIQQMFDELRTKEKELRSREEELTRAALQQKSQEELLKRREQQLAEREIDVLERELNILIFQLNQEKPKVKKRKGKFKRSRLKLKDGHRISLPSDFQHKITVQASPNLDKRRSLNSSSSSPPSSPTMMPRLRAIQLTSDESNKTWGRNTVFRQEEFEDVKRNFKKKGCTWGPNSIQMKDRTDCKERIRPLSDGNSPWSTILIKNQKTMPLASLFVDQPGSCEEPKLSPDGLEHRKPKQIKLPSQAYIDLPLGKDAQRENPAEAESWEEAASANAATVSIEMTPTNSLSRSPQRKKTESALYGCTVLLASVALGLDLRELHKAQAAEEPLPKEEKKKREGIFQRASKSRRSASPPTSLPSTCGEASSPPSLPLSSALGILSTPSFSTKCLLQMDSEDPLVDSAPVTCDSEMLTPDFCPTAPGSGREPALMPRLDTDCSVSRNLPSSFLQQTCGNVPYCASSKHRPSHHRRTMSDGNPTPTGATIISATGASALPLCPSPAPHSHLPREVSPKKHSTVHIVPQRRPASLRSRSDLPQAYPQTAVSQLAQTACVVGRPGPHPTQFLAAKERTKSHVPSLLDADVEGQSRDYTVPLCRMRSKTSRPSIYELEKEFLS
Chain of protein kinases (human kinome) (Homo sapiens, UniProt P31751) (P31751 whole entry): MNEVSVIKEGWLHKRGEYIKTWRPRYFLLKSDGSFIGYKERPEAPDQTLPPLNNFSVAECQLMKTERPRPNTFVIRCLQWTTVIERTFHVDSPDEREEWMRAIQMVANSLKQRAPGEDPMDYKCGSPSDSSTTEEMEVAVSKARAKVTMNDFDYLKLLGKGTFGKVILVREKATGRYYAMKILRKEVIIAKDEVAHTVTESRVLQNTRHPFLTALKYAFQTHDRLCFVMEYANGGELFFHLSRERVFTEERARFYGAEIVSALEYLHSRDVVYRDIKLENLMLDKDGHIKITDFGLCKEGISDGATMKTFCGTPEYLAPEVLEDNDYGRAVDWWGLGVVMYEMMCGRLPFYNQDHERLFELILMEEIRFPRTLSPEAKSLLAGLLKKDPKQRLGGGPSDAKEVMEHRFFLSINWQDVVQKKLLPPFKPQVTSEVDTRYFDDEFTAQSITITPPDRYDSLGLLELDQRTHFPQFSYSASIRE

In the case of `Cc1ccc(NC(=O)c2cccc(C(F)(F)F)c2)cc1N1Cc2cnc(Nc3ccc(N4CCN(Cc5cn(CCCCCOc6cccc7c6C(=O)N(C6CCC(=O)NC6=O)C7=O)nn5)CC4)nc3)nc2N(C)C1=O` (stereo not shown) [DB0646, N-(3-(7-((6-(4-((1-(5-((2-(2,6-Dioxopiperidin-3-yl)-1,3-dioxoisoindolin-4-yl)oxy)pentyl)-1H-1,2,3-triazol-4-yl)methyl)piperazin-1-v)pyridin-3-yl)amino)-1-methyl-2-oxo-1,4-dihydropyrimido[4,5-d]pyrimidin-3(2H)-yl)-4-methylphenyl)-3-(trifluoromethyl)benzamide], the “logFC of RIPK2 (O43353-1)” value ([1]; Experiment wp172) is reported as −0.4779, the logFC ([1]; experiment wp105) is reported as −0.4215 and the logFC ([1]; experiment wp172) is reported as −0.4779. The “logFC of RIPK2 (O43353-1)” value ([1]; experiment wp105) was −0.4215.
In the case of `Cc1ncsc1-c1ccc([C@H](C)NC(=O)[C@@H]2C[C@@H](O)CN2C(=O)[C@@H](NC(=O)CCOCCOCCN2CCN(c3ccc(Nc4ncc(Cl)c(Nc5ccccc5S(=O)(=O)C(C)C)n4)cc3)CC2)C(C)(C)C)cc1` [FMF.06.098.1], the logFC ([2]; experiment wp108) is reported as −0.3674, the logFC ([2]; experiment wp114) is reported as −0.4124 and the “logFC of CHEK1 (O14757)” value ([2]; Experiment wp108) is reported as −0.3674. The “logFC of CHEK1 (O14757)” value ([2]; Experiment wp114) was −0.4124.
With `C[C@@H]1C[C@@H](O)c2ncnc(N3CCN(C(=O)[C@H](CNCCCCCCCCCCc4cccc5c4C(=O)N(C4CCC(=O)NC4=O)C5=O)c4ccc(Cl)cc4)CC3)c21` (stereo partly shown) [INY.03.041.01] the logFC ([3]; experiment wp118) was −2.777, the logFC ([3]; experiment wp118, direction down) was −2.777 and the logFC ([3]; experiment wp135, 4 hr) was −1.739. It also gave a logFC ([3]; experiment wp135, 4 hr, direction down) of −1.739.
In the case of `CCc1cnn2c(N(Cc3ccc(N)nc3)C(=O)CCOCCOCCOCCNC(=O)CNc3cccc4c3C(=O)N(C3CCC(=O)NC3=O)C4=O)cc(N3CCCC[C@H]3CCO)nc12` (stereo partly shown) [MFH.5.115.2], the logFC [4] is reported as −1.679 and the “logFC of PIM2 (Q9P1W9)” value [4] is reported as −1.679.
`O=C1CCC(N2C(=O)c3cccc(NCCCCCCCCN4CCC(NC(=O)c5[nH]ncc5NC(=O)c5c(Cl)cccc5Cl)CC4)c3C2=O)C(=O)N1` (stereo not shown) [MFH.5.126.1] was tested, and the logFC ([2]; experiment wp076) was −0.3606, the “logFC of CHEK1 (O14757)” value ([2]; experiment wp076) was −0.3606 and the logFC [4] was −3.019. For the same compound, the “logFC of PIM2 (Q9P1W9)” value [4] was −3.019.
In the case of `Cc1ccc(C(=O)Nc2ccc(CN3CCN(CCCOCCOCCOCCNC(=O)COc4cccc5c4C(=O)N(C4CCC(=O)NC4=O)C5=O)CC3)c(C(F)(F)F)c2)cc1C#Cc1cnc2cccnn12` (stereo not shown) [SB1.G.187], the “logFC of RIPK2 (O43353-1)” value ([1]; Experiment wp114) is reported as −0.8828, the logFC ([1]; experiment wp105) is reported as −0.572 and the logFC ([1]; experiment wp114) is reported as −0.8828. For the same compound, the “logFC of RIPK2 (O43353-1)” value ([1]; experiment wp105) was −0.572.
With `CC(C)S(=O)(=O)c1ccccc1Nc1nc(Nc2ccc(N3CCN(CCOCCNC(=O)CNc4cccc5c4C(=O)N(C4CCC(=O)NC4=O)C5=O)CC3)cc2)ncc1Cl` (stereo not shown) [SK.3.91] the logFC ([5]; experiment wp133, 4 hr) was −0.4685, the “logFC MAP3K21 (Q5TCX8)” value ([5]; experiment wp133, 4 hr) was −0.4685 and the logFC ([3]; experiment wp105) was −0.8722. For the same compound, the logFC ([3]; experiment wp105, direction down) was −0.8722, the logFC ([3]; experiment wp107) was −0.4141 and the logFC ([3]; experiment wp107, direction down) was −0.4141. The logFC ([6]; experiment wp107) was −0.3692, the “logFC PRAG1” value ([6]; experiment wp107) was −0.3692 and the logFC ([6]; experiment wp133, 2 hr) was −0.3667. For the same compound, the “logFC PRAG1” value ([6]; experiment wp133, 2 hr) was −0.3667, the logFC ([6]; experiment wp133, 4 hr) was −0.4352 and the “logFC PRAG1” value ([6]; experiment wp133, 4 hr) was −0.4352.
In the case of `CC(C)S(=O)(=O)c1ccccc1Nc1nc(Nc2ccc(N3CCN(CCOCCOCCNC(=O)CNc4cccc5c4C(=O)N(C4CCC(=O)NC4=O)C5=O)CC3)cc2)ncc1Cl` (stereo not shown) [TL12.186], the logFC ([5]; experiment wp131) is reported as −0.969, the “logFC MAP3K21 (Q5TCX8)” value ([5]; experiment wp131) is reported as −0.969 and the logFC ([6]; experiment wp131) is reported as −0.4243. The “logFC PRAG1” value ([6]; experiment wp131) was −0.4243, the logFC ([6]; experiment wp137) was −0.3459 and the “logFC PRAG1” value ([6]; experiment wp137) was −0.3459.
